Laboratory results from PubChem BioAssay (NCI).
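Interpolation was linear, between the two tested concentrations surrounding the appropriate level; five concentrations were tested over 48 hours in 96-well plates. TGI marks complete inhibition of growth.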

How the values were obtained:
Assay in all cases: growth of human tumour cells (NCI), 48 h
KM20L2 colon = tested on: KM20L2 colon
HOP-92 NSCLC = tested on: HOP-92 NSCLC
CCRF-CEM leukemia = tested on: CCRF-CEM leukemia
A549 NSCLC = tested on: A549 NSCLC
HOP-18 NSCLC = tested on: HOP-18 NSCLC
SN12C renal = tested on: SN12C renal
ACHN renal = tested on: ACHN renal
A498 renal = tested on: A498 renal
DLD-1 colon = tested on: DLD-1 colon
LXFL 529 NSCLC = tested on: LXFL 529 NSCLC
SK-MEL-28 melanoma = tested on: SK-MEL-28 melanoma
NCI-H460 lung = tested on: NCI-H460 lung
HCT-15 colon = tested on: HCT-15 colon
EKVX NSCLC = tested on: EKVX NSCLC
TK-10 renal = tested on: TK-10 renal
COLO 205 colon = tested on: COLO 205 colon
U251 CNS = tested on: U251 CNS
HCT-116 colon = tested on: HCT-116 colon
SW-620 colon = tested on: SW-620 colon
SK-MEL-5 melanoma = tested on: SK-MEL-5 melanoma
HL-60(TB) leukemia = tested on: HL-60(TB) leukemia
NCI-H23 lung = tested on: NCI-H23 lung
SK-OV-3 ovarian = tested on: SK-OV-3 ovarian
RPMI-8226 leukemia = tested on: RPMI-8226 leukemia
RXF 393 renal = tested on: RXF 393 renal
SF-295 CNS = tested on: SF-295 CNS
XF 498 CNS = tested on: XF 498 CNS
M14 melanoma = tested on: M14 melanoma
MOLT-4 leukemia = tested on: MOLT-4 leukemia
SF-268 CNS = tested on: SF-268 CNS
SF-539 CNS = tested on: SF-539 CNS
DMS 114 small cell lung = tested on: DMS 114 small cell lung
DMS 273 small cell lung = tested on: DMS 273 small cell lung
K-562 leukemia = tested on: K-562 leukemia
HOP-62 NSCLC = tested on: HOP-62 NSCLC
LOX IMVI melanoma = tested on: LOX IMVI melanoma
OVCAR-8 ovarian = tested on: OVCAR-8 ovarian
RXF-631 renal = tested on: RXF-631 renal
UO-31 renal = tested on: UO-31 renal
NCI-H522 lung = tested on: NCI-H522 lung
HT29 colon = tested on: HT29 colon
SNB-78 CNS = tested on: SNB-78 CNS
M19-MEL melanoma = tested on: M19-MEL melanoma
MALME-3M melanoma = tested on: MALME-3M melanoma
NCI-H226 lung = tested on: NCI-H226 lung
SR leukemia = tested on: SR leukemia
IGROV1 ovarian = tested on: IGROV1 ovarian
786-0 renal = tested on: 786-0 renal
OVCAR-5 ovarian = tested on: OVCAR-5 ovarian
OVCAR-3 ovarian = tested on: OVCAR-3 ovarian
SNB-75 CNS = tested on: SNB-75 CNS
OVCAR-4 ovarian = tested on: OVCAR-4 ovarian
UACC-257 melanoma = tested on: UACC-257 melanoma
KM12 colon = tested on: KM12 colon
SK-MEL-2 melanoma = tested on: SK-MEL-2 melanoma
HCC-2998 colon = tested on: HCC-2998 colon
SNB-19 CNS = tested on: SNB-19 CNS
CAKI-1 renal = tested on: CAKI-1 renal
UACC-62 melanoma = tested on: UACC-62 melanoma

Compound `Nc1ccn(C2OC(C(O)CO)C(O)C2O)c(=O)n1` (centres undefined) has a TGI (KM20L2 colon) of over 100 µM, a TGI (HOP-92 NSCLC) of over 100 µM and a TGI (CCRF-CEM leukemia) of over 100 µM. The TGI (A549 NSCLC) was over 100 µM, the TGI (HOP-18 NSCLC) was over 100 µM and the TGI (SN12C renal) was over 100 µM. The TGI (ACHN renal) was over 100 µM, the TGI (A498 renal) was over 100 µM and the TGI (DLD-1 colon) was over 100 µM. The TGI (LXFL 529 NSCLC) was over 100 µM, the TGI (SK-MEL-28 melanoma) was over 100 µM and the TGI (NCI-H460 lung) was over 100 µM. For the same compound, the TGI (HCT-15 colon) was over 100 µM, the TGI (EKVX NSCLC) was over 100 µM and the TGI (TK-10 renal) was over 100 µM. The TGI (COLO 205 colon) was over 100 µM, the TGI (U251 CNS) was over 100 µM and the TGI (HCT-116 colon) was over 100 µM. For the same compound, the TGI (SW-620 colon) was over 100 µM, the TGI (SK-MEL-5 melanoma) was over 100 µM and the TGI (HL-60(TB) leukemia) was over 100 µM. It also gave a TGI (NCI-H23 lung) of over 100 µM, a TGI (SK-OV-3 ovarian) of over 100 µM and a TGI (RPMI-8226 leukemia) of over 100 µM. The TGI (RXF 393 renal) was over 100 µM, the TGI (SF-295 CNS) was over 100 µM and the TGI (XF 498 CNS) was over 100 µM. For the same compound, the TGI (M14 melanoma) was over 100 µM, the TGI (MOLT-4 leukemia) was over 100 µM and the TGI (SF-268 CNS) was over 100 µM. The TGI (SF-539 CNS) was over 100 µM, the TGI (DMS 114 small cell lung) was over 100 µM and the TGI (DMS 273 small cell lung) was over 100 µM. It also gave a TGI (K-562 leukemia) of over 100 µM, a TGI (HOP-62 NSCLC) of over 100 µM and a TGI (LOX IMVI melanoma) of over 100 µM. For the same compound, the TGI (OVCAR-8 ovarian) was over 100 µM, the TGI (RXF-631 renal) was over 100 µM and the TGI (UO-31 renal) was over 100 µM. For the same compound, the TGI (NCI-H522 lung) was over 100 µM.

With `CCOC(=O)C1SC(=Nc2ccccc2)N=C1C` (centres undefined) the TGI (HT29 colon) was over 100 µM, the TGI (KM20L2 colon) was over 100 µM and the TGI (HOP-92 NSCLC) was 88.8 µM. The TGI (SNB-78 CNS) was over 100 µM, the TGI (A549 NSCLC) was over 100 µM and the TGI (M19-MEL melanoma) was over 100 µM. The TGI (HOP-18 NSCLC) was over 100 µM, the TGI (MALME-3M melanoma) was over 100 µM and the TGI (SN12C renal) was over 100 µM. For the same compound, the TGI (NCI-H226 lung) was over 100 µM, the TGI (SR leukemia) was over 100 µM and the TGI (ACHN renal) was over 100 µM. The TGI (A498 renal) was over 100 µM, the TGI (DLD-1 colon) was over 100 µM and the TGI (LXFL 529 NSCLC) was over 100 µM. It also gave a TGI (SK-MEL-28 melanoma) of over 100 µM, a TGI (NCI-H460 lung) of over 100 µM and a TGI (IGROV1 ovarian) of over 100 µM. The TGI (786-0 renal) was over 100 µM, the TGI (HCT-15 colon) was over 100 µM and the TGI (EKVX NSCLC) was over 100 µM. It also gave a TGI (TK-10 renal) of over 100 µM, a TGI (COLO 205 colon) of over 100 µM and a TGI (OVCAR-5 ovarian) of over 100 µM. For the same compound, the TGI (U251 CNS) was over 100 µM, the TGI (OVCAR-3 ovarian) was over 100 µM and the TGI (HCT-116 colon) was over 100 µM. It also gave a TGI (SW-620 colon) of over 100 µM, a TGI (HL-60(TB) leukemia) of over 100 µM and a TGI (NCI-H23 lung) of over 100 µM. For the same compound, the TGI (SNB-75 CNS) was 88.7 µM, the TGI (OVCAR-4 ovarian) was over 100 µM and the TGI (RPMI-8226 leukemia) was over 100 µM. It also gave a TGI (RXF 393 renal) of over 100 µM, a TGI (UACC-257 melanoma) of over 100 µM and a TGI (SF-295 CNS) of over 100 µM. For the same compound, the TGI (XF 498 CNS) was over 100 µM, the TGI (KM12 colon) was over 100 µM and the TGI (MOLT-4 leukemia) was over 100 µM. It also gave a TGI (SF-268 CNS) of over 100 µM, a TGI (SF-539 CNS) of over 100 µM and a TGI (DMS 114 small cell lung) of over 100 µM. For the same compound, the TGI (SK-MEL-2 melanoma) was over 100 µM, the TGI (K-562 leukemia) was over 100 µM and the TGI (HOP-62 NSCLC) was over 100 µM. For the same compound, the TGI (HCC-2998 colon) was over 100 µM, the TGI (SNB-19 CNS) was over 100 µM and the TGI (LOX IMVI melanoma) was over 100 µM. It also gave a TGI (OVCAR-8 ovarian) of over 100 µM, a TGI (RXF-631 renal) of over 100 µM and a TGI (UO-31 renal) of over 100 µM. The TGI (NCI-H522 lung) was over 100 µM.

Work on `C[Si](C)(C)/C(Br)=C\CCN1C(=O)CCC1=O` yielded a TGI (HT29 colon) of over 100 µM, a TGI (KM20L2 colon) of over 100 µM and a TGI (HOP-92 NSCLC) of over 100 µM. It also gave a TGI (SNB-78 CNS) of over 100 µM, a TGI (CCRF-CEM leukemia) of over 100 µM and a TGI (A549 NSCLC) of over 100 µM. The TGI (M19-MEL melanoma) was over 100 µM, the TGI (HOP-18 NSCLC) was over 100 µM and the TGI (CAKI-1 renal) was over 100 µM. The TGI (MALME-3M melanoma) was over 100 µM, the TGI (SN12C renal) was over 100 µM and the TGI (NCI-H226 lung) was over 100 µM. It also gave a TGI (SR leukemia) of over 100 µM, a TGI (ACHN renal) of over 100 µM and a TGI (A498 renal) of over 100 µM. It also gave a TGI (DLD-1 colon) of over 100 µM, a TGI (LXFL 529 NSCLC) of over 100 µM and a TGI (SK-MEL-28 melanoma) of over 100 µM. It also gave a TGI (NCI-H460 lung) of over 100 µM, a TGI (IGROV1 ovarian) of over 100 µM and a TGI (786-0 renal) of over 100 µM. For the same compound, the TGI (HCT-15 colon) was over 100 µM, the TGI (EKVX NSCLC) was over 100 µM and the TGI (TK-10 renal) was over 100 µM. For the same compound, the TGI (COLO 205 colon) was over 100 µM, the TGI (OVCAR-5 ovarian) was over 100 µM and the TGI (U251 CNS) was over 100 µM. The TGI (OVCAR-3 ovarian) was over 100 µM, the TGI (HCT-116 colon) was over 100 µM and the TGI (SW-620 colon) was over 100 µM. It also gave a TGI (SK-MEL-5 melanoma) of over 100 µM, a TGI (HL-60(TB) leukemia) of over 100 µM and a TGI (NCI-H23 lung) of over 100 µM. For the same compound, the TGI (SK-OV-3 ovarian) was over 100 µM, the TGI (SNB-75 CNS) was over 100 µM and the TGI (OVCAR-4 ovarian) was over 100 µM. It also gave a TGI (RXF 393 renal) of over 100 µM, a TGI (UACC-257 melanoma) of over 100 µM and a TGI (SF-295 CNS) of over 100 µM. For the same compound, the TGI (XF 498 CNS) was over 100 µM, the TGI (M14 melanoma) was over 100 µM and the TGI (KM12 colon) was over 100 µM. It also gave a TGI (MOLT-4 leukemia) of over 100 µM, a TGI (SF-268 CNS) of over 100 µM and a TGI (SF-539 CNS) of over 100 µM. For the same compound, the TGI (DMS 114 small cell lung) was over 100 µM, the TGI (UACC-62 melanoma) was over 100 µM and the TGI (DMS 273 small cell lung) was over 100 µM. The TGI (SK-MEL-2 melanoma) was over 100 µM, the TGI (K-562 leukemia) was over 100 µM and the TGI (HOP-62 NSCLC) was over 100 µM. For the same compound, the TGI (HCC-2998 colon) was over 100 µM, the TGI (SNB-19 CNS) was over 100 µM and the TGI (LOX IMVI melanoma) was over 100 µM. The TGI (OVCAR-8 ovarian) was over 100 µM, the TGI (RXF-631 renal) was over 100 µM and the TGI (UO-31 renal) was over 100 µM.
